Laboratory results taken from patent US10189777B2, “Benzenesulfonamido and related compounds for use as agonists of RORγ and the treatment of disease” (Lycera Corporation, priority 2014, dated 2019).
pEC50: −log10 of the molar value.

Target: T1, HIS-tagged RORγ-LBD protein (Homo sapiens, UniProt P51449)
T1 construct: made in house; host or cells: SF9 cells, baculovirus expression system; the lysate was used
T1 sequence (P51449 269-508 limits assumed): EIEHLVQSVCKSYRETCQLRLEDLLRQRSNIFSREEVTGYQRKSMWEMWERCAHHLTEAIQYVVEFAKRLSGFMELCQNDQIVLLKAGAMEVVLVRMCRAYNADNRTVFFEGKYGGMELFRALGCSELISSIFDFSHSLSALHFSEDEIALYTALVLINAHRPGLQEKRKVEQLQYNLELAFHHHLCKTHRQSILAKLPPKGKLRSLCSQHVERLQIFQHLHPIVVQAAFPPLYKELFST
Experiment: RORγ-Ligand Binding Domain (LBD) TR-FRET Assay
Type: biochemical
Details: for TR-FRET Assay Max Response: upper plateau of 4-parameter fit, signal in the absence of ursolic acid or test compound set as 100; for pEC50: with 2 μM RORγ antagonist ursolic acid, biotinylated SRC1 LXXLL peptide, ratio 665 nm/615 nm
Description: Exemplary compounds from the above Examples were tested for ability to increase RORγ activity using (i) a RORγ-Ligand Binding Domain (LBD) TR-FRET Assay, and (ii) a Gal4-RORγ Luciferase Reporter Assay in HEK-293T Cells. Assay procedures and results are described below.
Part I—Procedures for RORγ-Ligand Binding Domain TR-FRET Assay
HIS-tagged RORγ-LBD protein was expressed in SF9 cells using a baculovirus expression system. The lysate was diluted in assay buffer (50 mM Tris pH 7.0, 50 mM KCl, 1 mM EDTA, 0.1 mM DTT, 0.01% BSA) to obtain RORγ-LBD final concentration of −3 nM in a 384-well assay plate (need to titrate for each batch of protein).
A stock of biotinylated-LXXLL peptide from coactivator SRC1 (Biotin-[…]) was prepared in assay buffer and added to each well (200 nM final concentration). A solution of Europium tagged anti-HIS antibody (0.6 nM final concentration) and APC-conjugated streptavidin (30 nM final concentration) were also added to each well. RORγ antagonist ursolic acid was also included at a final concentration of 2 μM. Compounds were diluted in DMSO and further diluted in assay buffer with a final DMSO concentration at 1%.
The final assay mixture was incubated overnight at 4° C. or 2 hours at room temperature, and the fluorescence signal was measured on an Envision plate reader: (Excitation filter=340 nm; APC emission=665 nm; Europium emission=615 nm; dichroic mirror=D400/D630; delay time=100 μs, integration time=200 μs). 50% Effective concentration (EC50) values for test compounds were calculated from the quotient of the fluorescence signal at 665 nm divided by the fluorescence signal at 615 nm. The quotient of the fluorescence signals in the absence of ursolic acid or test compound is set as 100. Max Response is defined as the upper plateau in the signal as determined by line-fit using a 4-parameter logistic model in PRISM (GraphPad).

SMILES	pEC50	TR-FRET Assay Max Response
CCN(c1cccc(COC2CCCCC2C(F)(F)F)c1)S(=O)(=O)c1cccc(C(F)(F)F)c1 (stereo not shown)	5.30 to 6.30	** (The symbol “**” indicates a value in the range of greater than 90 to 150)
CCN(c1cccc(COC2(C)CCCCC2)c1)S(=O)(=O)c1cccc(C(F)(F)F)c1	> 6.30	** (The symbol “**” indicates a value in the range of greater than 90 to 150)
CCN(c1cccc(COC2CCCCC2)c1)S(=O)(=O)c1cccc(C(F)(F)F)c1	5.30 to 6.30	** (The symbol “**” indicates a value in the range of greater than 90 to 150)
CCN(c1cccc(C(C)Oc2c(F)cccc2Cl)c1)S(=O)(=O)c1cccc(C(F)(F)F)c1 (stereo not shown)	> 6.30	** (The symbol “**” indicates a value in the range of greater than 90 to 150)
CCN(c1cccc(OCc2cc(C(F)(F)F)ccc2Cl)c1)S(=O)(=O)c1cccc(C(F)(F)F)c1	< 5.00	*** (The symbol “***” indicates a value in the range of greater than 150 to 200)
CCN(c1cccc(OCc2cccc(C(F)(F)F)c2Cl)c1)S(=O)(=O)c1cccc(C(F)(F)F)c1	< 5.00	
CCOc1nn(CC)cc1S(=O)(=O)N(CC)c1cccc(OCc2ccccc2)c1	< 5.00	
CCN(c1cccc(CNC2CCCCC2)c1)S(=O)(=O)c1cccc(C(F)(F)F)c1	< 5.00	
CCN(c1cccc(OCC2CCCCC2)c1)S(=O)(=O)c1cccc(C(F)(F)F)c1	> 6.30	**** (The symbol “****” indicates a value greater than 200)
CCC(c1ccc(OCc2ccccc2)cc1)S(=O)(=O)c1cccc(C(F)(F)F)c1 (stereo not shown)	5.30 to 6.30	** (The symbol “**” indicates a value in the range of greater than 90 to 150)
CCC(c1cccc(OCc2c(F)cccc2Cl)c1)S(=O)(=O)c1cccc(C(F)(F)F)c1 (stereo not shown)	> 6.30	*** (The symbol “***” indicates a value in the range of greater than 150 to 200)
CCC(c1ccc(OCc2ccccc2)cc1)S(=O)(=O)c1ccc(Cl)cc1 (stereo not shown)	5.30 to 6.30	*** (The symbol “***” indicates a value in the range of greater than 150 to 200)
CCC(c1cccc(OCc2ccccc2)c1)S(=O)(=O)c1ccc(Cl)cc1 (stereo not shown)	< 5.00	* (The symbol “*” indicates a value in the range of 70 to 90)
CCC(c1cccc(OCc2c(F)cccc2Cl)c1)S(=O)(=O)c1ccc(Cl)cc1 (stereo not shown)	> 6.30	*** (The symbol “***” indicates a value in the range of greater than 150 to 200)

Second part, led by results:

pEC50	SMILES	TR-FRET Assay Max Response
> 6.30	CCN(c1cccc(OCc2ccccc2F)c1)S(=O)(=O)c1cccc(C(F)(F)F)c1	*** (The symbol “***” indicates a value in the range of greater than 150 to 200)
< 5.00	CCN(c1cccc(C(C)Oc2ccccc2Cl)c1)S(=O)(=O)c1cccc(C(F)(F)F)c1 (stereo not shown)	** (The symbol “**” indicates a value in the range of greater than 90 to 150)
5.30 to 6.30	CCN(c1cccc(COc2ccccc2Cl)c1)S(=O)(=O)c1cccc(C(F)(F)F)c1	** (The symbol “**” indicates a value in the range of greater than 90 to 150)
> 6.30	CCN(c1cccc(COc2c(F)cccc2Cl)c1)S(=O)(=O)c1cccc(C(F)(F)F)c1	** (The symbol “**” indicates a value in the range of greater than 90 to 150)
< 5.00	CCN(c1cccc(Cn2ncc3ccccc32)c1)S(=O)(=O)c1cccc(C(F)(F)F)c1	** (The symbol “**” indicates a value in the range of greater than 90 to 150)
5.30 to 6.30	CCN(Cc1cccc(N(CC)S(=O)(=O)c2cccc(C(F)(F)F)c2)c1)c1ccccc1Cl	** (The symbol “**” indicates a value in the range of greater than 90 to 150)
< 5.00	CCN(c1cccc(Cn2c(=O)oc3ccccc32)c1)S(=O)(=O)c1cccc(C(F)(F)F)c1	** (The symbol “**” indicates a value in the range of greater than 90 to 150)
5.30 to 6.30	CCN(c1cccc(CN2CCc3ccccc32)c1)S(=O)(=O)c1cccc(C(F)(F)F)c1	** (The symbol “**” indicates a value in the range of greater than 90 to 150)
< 5.00	CCN(c1cccc(CNc2ccccc2Cl)c1)S(=O)(=O)c1cccc(C(F)(F)F)c1	** (The symbol “**” indicates a value in the range of greater than 90 to 150)
< 5.00	CCN(Cc1ccccc1Cl)c1cccc(N(CC)S(=O)(=O)c2cccc(C(F)(F)F)c2)c1	** (The symbol “**” indicates a value in the range of greater than 90 to 150)
< 5.00	CCN(c1cccc(CNCc2ccccc2Cl)c1)S(=O)(=O)c1cccc(C(F)(F)F)c1	** (The symbol “**” indicates a value in the range of greater than 90 to 150)
< 5.00	CCN(c1cccc(OCCc2ccccc2)c1)S(=O)(=O)c1cccc(C(F)(F)F)c1	** (The symbol “**” indicates a value in the range of greater than 90 to 150)
< 5.00	CCN(c1cccc(OC(C)c2c(F)cccc2Cl)c1)S(=O)(=O)c1cccc(C(F)(F)F)c1 (stereo not shown)	
< 5.00	CCN(c1cccc(OCc2ccc(Cl)cc2Cl)c1)S(=O)(=O)c1cccc(C(F)(F)F)c1	** (The symbol “**” indicates a value in the range of greater than 90 to 150)
< 5.00	CCN(c1cccc(OCc2cccc(Cl)c2Cl)c1)S(=O)(=O)c1cccc(C(F)(F)F)c1	
5.30 to 6.30	CCN(c1cccc(OC2Cc3ccccc3C2)c1)S(=O)(=O)c1cccc(C(F)(F)F)c1	*** (The symbol “***” indicates a value in the range of greater than 150 to 200)
> 6.30	CCN(c1cccc(OCc2c(F)cccc2Cl)c1)S(=O)(=O)c1cccc(C(F)(F)F)c1	**** (The symbol “****” indicates a value greater than 200)
> 6.30	CCN(c1cccc(OC2CCc3ccccc32)c1)S(=O)(=O)c1cccc(C(F)(F)F)c1 (stereo not shown)	**** (The symbol “****” indicates a value greater than 200)
5.30 to 6.30	CCN(c1cccc(OCc2ccccc2)c1)S(=O)(=O)c1cccc(C(F)(F)F)c1	*** (The symbol “***” indicates a value in the range of greater than 150 to 200)
